Reference: article PMC11420776 (RSC Advances, 2024)

Columns and labels:
SF-268 (CNS cancer) = test: NCI 60-cell one-dose antiproliferative screen; format: cell-based, human; conditions: one dose 10 μM
PC-3 (prostate cancer) = test: NCI 60-cell one-dose antiproliferative screen; format: cell-based, human; conditions: one dose 10 μM
SNB-19 (CNS cancer) = test: NCI 60-cell one-dose antiproliferative screen; format: cell-based, human; conditions: one dose 10 μM
RXF 393 (renal cancer) = test: NCI 60-cell one-dose antiproliferative screen; format: cell-based, human; conditions: one dose 10 μM
[1] = tested on: NCI/ADR-RES (ovarian cancer); test: NCI 60-cell one-dose antiproliferative screen; format: cell-based, human; conditions: one dose 10 μM
IGROV1 (ovarian cancer) = test: NCI 60-cell one-dose antiproliferative screen; format: cell-based, human; conditions: one dose 10 μM
LOX IMIV (melanoma) = test: NCI 60-cell one-dose antiproliferative screen; format: cell-based, human; conditions: one dose 10 μM
A498 (renal cancer) = test: NCI 60-cell one-dose antiproliferative screen; format: cell-based, human; conditions: one dose 10 μM
TK-10 (renal cancer) = test: NCI 60-cell one-dose antiproliferative screen; format: cell-based, human; conditions: one dose 10 μM
UACC-257 (melanoma) = test: NCI 60-cell one-dose antiproliferative screen; format: cell-based, human; conditions: one dose 10 μM
SK-MEL-2 (melanoma) = test: NCI 60-cell one-dose antiproliferative screen; format: cell-based, human; conditions: one dose 10 μM
HT29 (colon cancer) = test: NCI 60-cell one-dose antiproliferative screen; format: cell-based, human; conditions: one dose 10 μM
MALME-3M (melanoma) = test: NCI 60-cell one-dose antiproliferative screen; format: cell-based, human; conditions: one dose 10 μM
T-47D (breast cancer) = test: NCI 60-cell one-dose antiproliferative screen; format: cell-based, human; conditions: one dose 10 μM
DU-145 (prostate cancer) = test: NCI 60-cell one-dose antiproliferative screen; format: cell-based, human; conditions: one dose 10 μM
SF-539 (CNS cancer) = test: NCI 60-cell one-dose antiproliferative screen; format: cell-based, human; conditions: one dose 10 μM
HCC-2998 (colon cancer) = test: NCI 60-cell one-dose antiproliferative screen; format: cell-based, human; conditions: one dose 10 μM
HOP-92 (NSC lung cancer) = test: NCI 60-cell one-dose antiproliferative screen; format: cell-based, human; conditions: one dose 10 μM
HS 578T (breast cancer) = test: NCI 60-cell one-dose antiproliferative screen; format: cell-based, human; conditions: one dose 10 μM
HOP-62 (NSC lung cancer) = test: NCI 60-cell one-dose antiproliferative screen; format: cell-based, human; conditions: one dose 10 μM
[2] = tested on: 60 human tumor cell lines; test: NCI 60-cell one-dose antiproliferative screen, whole panel; format: cell-based; conditions: Homo sapiens, 60 cell, read-out: Mean inhibition (mean GI%)
OVCAR-4 (ovarian cancer) = test: NCI 60-cell one-dose antiproliferative screen; format: cell-based, human; conditions: one dose 10 μM
[3] = tested on: A549/ATCC (NSC lung cancer); test: NCI 60-cell one-dose antiproliferative screen; format: cell-based, human; conditions: one dose 10 μM
SF-295 (CNS cancer) = test: NCI 60-cell one-dose antiproliferative screen; format: cell-based, human; conditions: one dose 10 μM
SNB-75 (CNS cancer) = test: NCI 60-cell one-dose antiproliferative screen; format: cell-based, human; conditions: one dose 10 μM
U251 (CNS cancer) = test: NCI 60-cell one-dose antiproliferative screen; format: cell-based, human; conditions: one dose 10 μM
OVCAR-5 (ovarian cancer) = test: NCI 60-cell one-dose antiproliferative screen; format: cell-based, human; conditions: one dose 10 μM
[4] = tested on: NCI-H522 (NSC lung cancer); test: NCI 60-cell one-dose antiproliferative screen; format: cell-based, human; conditions: one dose 10 μM
KM12 (colon cancer) = test: NCI 60-cell one-dose antiproliferative screen; format: cell-based, human; conditions: one dose 10 μM
CAKI-1 (renal cancer) = test: NCI 60-cell one-dose antiproliferative screen; format: cell-based, human; conditions: one dose 10 μM
[5] = tested on: NCI-H226 (NSC lung cancer); test: NCI 60-cell one-dose antiproliferative screen; format: cell-based, human; conditions: one dose 10 μM
HCT-15 (colon cancer) = test: NCI 60-cell one-dose antiproliferative screen; format: cell-based, human; conditions: one dose 10 μM
SN12C (renal cancer) = test: NCI 60-cell one-dose antiproliferative screen; format: cell-based, human; conditions: one dose 10 μM
ACHN (renal cancer) = test: NCI 60-cell one-dose antiproliferative screen; format: cell-based, human; conditions: one dose 10 μM
HCT-116 (colon cancer) = test: NCI 60-cell one-dose antiproliferative screen; format: cell-based, human; conditions: one dose 10 μM
[6] = tested on: MDA-MB-231/ATCC (breast cancer); test: NCI 60-cell one-dose antiproliferative screen; format: cell-based, human; conditions: one dose 10 μM
EKVX (NSC lung cancer) = test: NCI 60-cell one-dose antiproliferative screen; format: cell-based, human; conditions: one dose 10 μM
OVCAR-3 (ovarian cancer) = test: NCI 60-cell one-dose antiproliferative screen; format: cell-based, human; conditions: one dose 10 μM
COLO-205 (colon cancer) = test: NCI 60-cell one-dose antiproliferative screen; format: cell-based, human; conditions: one dose 10 μM
[7] = tested on: NCI-H460 (NSC lung cancer); test: NCI 60-cell one-dose antiproliferative screen; format: cell-based, human; conditions: one dose 10 μM
[8] = tested on: NCI-H23 (NSC lung cancer); test: NCI 60-cell one-dose antiproliferative screen; format: cell-based, human; conditions: one dose 10 μM
OVCAR-8 (ovarian cancer) = test: NCI 60-cell one-dose antiproliferative screen; format: cell-based, human; conditions: one dose 10 μM
UO-31 (renal cancer) = test: NCI 60-cell one-dose antiproliferative screen; format: cell-based, human; conditions: one dose 10 μM
SK-OV-3 (ovarian cancer) = test: NCI 60-cell one-dose antiproliferative screen; format: cell-based, human; conditions: one dose 10 μM
[9] = tested on: MDA-MB-468 (breast cancer); test: NCI 60-cell one-dose antiproliferative screen; format: cell-based, human; conditions: one dose 10 μM
CCRF-CEM (leukemia) = test: NCI 60-cell one-dose antiproliferative screen; format: cell-based, human; conditions: one dose 10 μM
786-0 (renal cancer) = test: NCI 60-cell one-dose antiproliferative screen; format: cell-based, human; conditions: one dose 10 μM
[10] = tested on: NCI-H322M (NSC lung cancer); test: NCI 60-cell one-dose antiproliferative screen; format: cell-based, human; conditions: one dose 10 μM
MCF7 (breast cancer) = test: NCI 60-cell one-dose antiproliferative screen; format: cell-based, human; conditions: one dose 10 μM
MDA-MB-435 (melanoma) = test: NCI 60-cell one-dose antiproliferative screen; format: cell-based, human; conditions: one dose 10 μM
UACC-62 (melanoma) = test: NCI 60-cell one-dose antiproliferative screen; format: cell-based, human; conditions: one dose 10 μM
RPMI-8226 (leukemia) = test: NCI 60-cell one-dose antiproliferative screen; format: cell-based, human; conditions: one dose 10 μM
SK-MEL-28 (melanoma) = test: NCI 60-cell one-dose antiproliferative screen; format: cell-based, human; conditions: one dose 10 μM
SW-620 (colon cancer) = test: NCI 60-cell one-dose antiproliferative screen; format: cell-based, human; conditions: one dose 10 μM
M14 (melanoma) = test: NCI 60-cell one-dose antiproliferative screen; format: cell-based, human; conditions: one dose 10 μM
[11] = MTT cytotoxicity assay, MCF10a; format: cell-based; conditions: human, MCF10a normal mammary epithelial cells
caspase-9 = test: Caspase-9; format: cell-based, human; conditions: MCF7 cells, versus untreated control cells

COc1ccc(-c2nnc3ccc(NNC(C)=O)nn23)cc1 [Compound 6b, N′-(3-(4-methoxyphenyl)-[1,2,4]triazolo[4,3-b]pyridazin-6-yl)acetohydrazide]
GI% (SF-268 (CNS cancer)): — (— GI% is below 15%)
GI% (PC-3 (prostate cancer)): — (— GI% is below 15%)
GI% (SNB-19 (CNS cancer)): — (— GI% is below 15%)
GI% (RXF 393 (renal cancer)): — (— GI% is below 15%)
GI% [1]: — (— GI% is below 15%)
GI% (IGROV1 (ovarian cancer)): — (— GI% is below 15%)
GI% (LOX IMIV (melanoma)): — (— GI% is below 15%)
GI% (A498 (renal cancer)): — (— GI% is below 15%)
GI% (TK-10 (renal cancer)): — (— GI% is below 15%)
GI% (UACC-257 (melanoma)): — (— GI% is below 15%)
GI% (SK-MEL-2 (melanoma)): — (— GI% is below 15%)
GI% (HT29 (colon cancer)): — (— GI% is below 15%)
GI% (MALME-3M (melanoma)): — (— GI% is below 15%)
GI% (T-47D (breast cancer)): — (— GI% is below 15%)
GI% (DU-145 (prostate cancer)): — (— GI% is below 15%)
GI% (SF-539 (CNS cancer)): — (— GI% is below 15%)
GI% (HCC-2998 (colon cancer)): — (— GI% is below 15%)
GI% (HOP-92 (NSC lung cancer)): — (— GI% is below 15%)
GI% (HS 578T (breast cancer)): — (— GI% is below 15%)
GI% (HOP-62 (NSC lung cancer)): — (— GI% is below 15%)
inhibition at 10 µM [2]: < 0%
GI% (OVCAR-4 (ovarian cancer)): — (— GI% is below 15%)
GI% [3]: — (— GI% is below 15%)
GI% (SF-295 (CNS cancer)): — (— GI% is below 15%)
GI% (SNB-75 (CNS cancer)): — (— GI% is below 15%)
GI% (U251 (CNS cancer)): — (— GI% is below 15%)
GI% (OVCAR-5 (ovarian cancer)): — (— GI% is below 15%)
GI% [4]: — (— GI% is below 15%)
GI% (KM12 (colon cancer)): — (— GI% is below 15%)
GI% (CAKI-1 (renal cancer)): — (— GI% is below 15%)
GI% [5]: — (— GI% is below 15%)
GI% (HCT-15 (colon cancer)): — (— GI% is below 15%)
GI% (SN12C (renal cancer)): — (— GI% is below 15%)
GI% (ACHN (renal cancer)): — (— GI% is below 15%)
GI% (HCT-116 (colon cancer)): — (— GI% is below 15%)
GI% [6]: — (— GI% is below 15%)
GI% (EKVX (NSC lung cancer)): — (— GI% is below 15%)
GI% (OVCAR-3 (ovarian cancer)): — (— GI% is below 15%)
GI% (COLO-205 (colon cancer)): — (— GI% is below 15%)
GI% [7]: — (— GI% is below 15%)
GI% [8]: — (— GI% is below 15%)
GI% (OVCAR-8 (ovarian cancer)): — (— GI% is below 15%)
GI% (UO-31 (renal cancer)): — (— GI% is below 15%)
GI% (SK-OV-3 (ovarian cancer)): — (— GI% is below 15%)
GI% [9]: — (— GI% is below 15%)
GI% (CCRF-CEM (leukemia)): — (— GI% is below 15%)
GI% (786-0 (renal cancer)): — (— GI% is below 15%)
GI% [10]: — (— GI% is below 15%)
GI% (MCF7 (breast cancer)): — (— GI% is below 15%)
GI% (MDA-MB-435 (melanoma)): — (— GI% is below 15%)
GI% (UACC-62 (melanoma)): — (— GI% is below 15%)
GI% (RPMI-8226 (leukemia)): — (— GI% is below 15%)
GI% (SK-MEL-28 (melanoma)): — (— GI% is below 15%)
GI% (SW-620 (colon cancer)): — (— GI% is below 15%)
GI% (M14 (melanoma)): — (— GI% is below 15%)

CN[C@@H]1C[C@H]2O[C@@](C)([C@@H]1OC)n1c3ccccc3c3c4c(c5c6ccccc6n2c5c31)C(=O)NC4 [Staurosporine, reference compound]
IC50 at 72 h [11]: 18.3 ± 8.03 µM
increase of apoptotic caspase-9 level (caspase-9): 7.19 fold
